Source: paper PMC8474115 (Journal of Medicinal Chemistry, 2021)
Counter-ions that a name gives are not always drawn. Like-named read-outs stand apart in the source and are kept apart here.

Tests used:
[1] = target: T1, Muscarinic M1 (Homo sapiens, UniProt P11229); test: Eurofins SafetyScreen panel; assay type: binding
T1 construct: Eurofins (contract screening, SafetyScreen panel) PP223
T1 sequence (P11229 1-460): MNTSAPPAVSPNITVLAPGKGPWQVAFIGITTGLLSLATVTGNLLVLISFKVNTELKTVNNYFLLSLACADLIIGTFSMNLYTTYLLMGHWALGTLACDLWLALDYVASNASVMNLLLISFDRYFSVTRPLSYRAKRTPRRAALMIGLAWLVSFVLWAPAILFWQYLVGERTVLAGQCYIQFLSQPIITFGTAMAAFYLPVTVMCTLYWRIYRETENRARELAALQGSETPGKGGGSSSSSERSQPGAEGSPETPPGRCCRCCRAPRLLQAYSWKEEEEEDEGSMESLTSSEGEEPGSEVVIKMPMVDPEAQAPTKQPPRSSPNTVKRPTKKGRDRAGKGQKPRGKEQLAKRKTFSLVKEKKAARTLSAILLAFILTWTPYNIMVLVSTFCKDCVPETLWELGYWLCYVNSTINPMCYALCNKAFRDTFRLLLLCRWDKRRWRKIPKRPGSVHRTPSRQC

[2] = target: T2, Cathepsin G (Homo sapiens, UniProt P08311); test: Eurofins SafetyScreen panel; assay type: biochemical
T2 construct: Eurofins

[3] = target: CYP2D6 (Homo sapiens, UniProt P10635); test: Cytochrome P450 inhibition (Eurofins); conditions: at 10 μM; listed as 17, 10 µM
CYP2D6, sequence (P10635 whole entry): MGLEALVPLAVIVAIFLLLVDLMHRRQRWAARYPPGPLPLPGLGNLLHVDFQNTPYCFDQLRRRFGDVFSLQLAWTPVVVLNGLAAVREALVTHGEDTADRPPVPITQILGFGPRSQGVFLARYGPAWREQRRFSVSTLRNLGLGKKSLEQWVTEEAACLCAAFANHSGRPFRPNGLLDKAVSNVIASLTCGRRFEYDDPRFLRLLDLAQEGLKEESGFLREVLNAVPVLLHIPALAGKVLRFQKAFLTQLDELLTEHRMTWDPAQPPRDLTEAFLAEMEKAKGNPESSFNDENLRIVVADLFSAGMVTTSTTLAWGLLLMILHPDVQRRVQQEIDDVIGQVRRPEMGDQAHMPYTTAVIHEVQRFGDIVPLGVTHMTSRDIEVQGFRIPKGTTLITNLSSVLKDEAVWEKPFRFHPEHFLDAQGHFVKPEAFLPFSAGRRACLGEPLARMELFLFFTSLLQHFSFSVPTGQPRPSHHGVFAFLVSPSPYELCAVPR

[4] = target: T3, Adrenergic α2B (Homo sapiens, UniProt P18089); test: Eurofins SafetyScreen panel; assay type: binding
T3 construct: Eurofins (contract screening, SafetyScreen panel) PP223
T3 sequence (P18089 1-450): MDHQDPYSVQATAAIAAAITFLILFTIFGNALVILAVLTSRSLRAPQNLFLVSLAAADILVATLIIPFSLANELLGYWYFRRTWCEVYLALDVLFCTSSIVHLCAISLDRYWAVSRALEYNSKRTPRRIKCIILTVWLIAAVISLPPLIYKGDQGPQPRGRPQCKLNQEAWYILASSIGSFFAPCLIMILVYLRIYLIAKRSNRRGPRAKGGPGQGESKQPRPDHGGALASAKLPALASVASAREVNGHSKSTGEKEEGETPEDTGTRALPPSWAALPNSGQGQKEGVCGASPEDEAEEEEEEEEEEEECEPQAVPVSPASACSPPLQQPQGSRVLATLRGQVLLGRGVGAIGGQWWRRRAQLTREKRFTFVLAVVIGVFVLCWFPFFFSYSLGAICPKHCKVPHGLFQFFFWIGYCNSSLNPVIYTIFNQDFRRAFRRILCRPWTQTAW

[5] = target: T4, Muscarinic M4 (Homo sapiens, UniProt P08173); test: Eurofins SafetyScreen panel; assay type: binding
T4 construct: Eurofins (contract screening, SafetyScreen panel) PP223
T4 sequence (P08173 whole entry): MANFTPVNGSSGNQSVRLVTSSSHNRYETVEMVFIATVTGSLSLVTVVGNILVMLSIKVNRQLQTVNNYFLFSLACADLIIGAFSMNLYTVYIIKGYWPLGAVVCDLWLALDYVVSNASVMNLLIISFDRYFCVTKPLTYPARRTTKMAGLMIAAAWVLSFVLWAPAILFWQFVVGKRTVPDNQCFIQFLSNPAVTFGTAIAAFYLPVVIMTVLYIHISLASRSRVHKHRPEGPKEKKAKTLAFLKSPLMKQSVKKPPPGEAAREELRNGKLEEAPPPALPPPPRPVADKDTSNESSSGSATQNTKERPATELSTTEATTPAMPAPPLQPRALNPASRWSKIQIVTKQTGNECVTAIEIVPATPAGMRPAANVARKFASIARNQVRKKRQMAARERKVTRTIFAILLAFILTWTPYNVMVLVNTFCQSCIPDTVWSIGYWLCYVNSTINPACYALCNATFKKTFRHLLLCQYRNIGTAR

[6] = target: CYP3A4 (Homo sapiens, UniProt P08684); test: Cytochrome P450 inhibition (Eurofins)
[7] = target: T5, GABAB1A (Homo sapiens, UniProt Q9UBS5); test: Eurofins SafetyScreen panel; assay type: binding
T5 construct: purchased Eurofins (Panlabs) SafetyScreen87 Panel

[8] = target: Potassium Channel [hERG] (Homo sapiens, UniProt Q12809); test: biochemical
Potassium Channel [hERG], sequence (Q12809 whole entry): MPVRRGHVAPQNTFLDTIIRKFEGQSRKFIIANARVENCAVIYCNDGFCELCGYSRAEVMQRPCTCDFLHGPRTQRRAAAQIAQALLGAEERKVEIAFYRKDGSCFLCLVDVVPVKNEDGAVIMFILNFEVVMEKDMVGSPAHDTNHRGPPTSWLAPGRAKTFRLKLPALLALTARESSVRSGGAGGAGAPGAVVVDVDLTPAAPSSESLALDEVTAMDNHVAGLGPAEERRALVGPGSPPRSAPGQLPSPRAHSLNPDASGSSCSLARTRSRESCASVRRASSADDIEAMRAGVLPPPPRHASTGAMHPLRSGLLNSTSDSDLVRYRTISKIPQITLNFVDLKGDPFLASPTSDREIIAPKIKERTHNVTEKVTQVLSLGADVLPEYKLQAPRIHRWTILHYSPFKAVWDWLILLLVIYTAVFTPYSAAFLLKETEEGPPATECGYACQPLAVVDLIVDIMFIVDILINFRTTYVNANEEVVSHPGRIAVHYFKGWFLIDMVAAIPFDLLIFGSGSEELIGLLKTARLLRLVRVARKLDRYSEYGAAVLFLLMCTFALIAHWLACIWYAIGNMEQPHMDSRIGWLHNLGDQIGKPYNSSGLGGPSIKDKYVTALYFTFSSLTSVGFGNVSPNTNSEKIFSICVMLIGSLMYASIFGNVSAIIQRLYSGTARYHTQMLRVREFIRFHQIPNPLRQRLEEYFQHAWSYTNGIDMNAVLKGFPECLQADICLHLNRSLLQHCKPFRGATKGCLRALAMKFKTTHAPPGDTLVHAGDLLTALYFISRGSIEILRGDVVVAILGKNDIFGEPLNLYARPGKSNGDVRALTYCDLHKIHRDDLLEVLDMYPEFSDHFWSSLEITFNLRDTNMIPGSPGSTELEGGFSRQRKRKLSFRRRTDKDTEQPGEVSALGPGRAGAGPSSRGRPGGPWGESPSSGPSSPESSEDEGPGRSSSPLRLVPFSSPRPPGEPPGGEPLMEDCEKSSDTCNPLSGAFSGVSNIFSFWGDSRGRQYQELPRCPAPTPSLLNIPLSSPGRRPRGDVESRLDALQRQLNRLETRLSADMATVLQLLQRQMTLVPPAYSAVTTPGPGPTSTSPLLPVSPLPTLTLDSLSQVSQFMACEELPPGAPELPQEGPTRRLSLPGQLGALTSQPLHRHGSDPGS

[9] = target: T6, Histamine H2 (Homo sapiens, UniProt P25021); test: Eurofins SafetyScreen panel; assay type: binding
T6 construct: purchased Eurofins (Panlabs) SafetyScreen87 Panel

[10] = target: T7, Chemokine CCR2 (IL-8RB) (Homo sapiens, UniProt P25025); test: Eurofins SafetyScreen panel; assay type: binding; conditions: read-out: %inh
T7 construct: purchased Eurofins (Panlabs) SafetyScreen87 Panel

[11] = target: CYP2C19 (Homo sapiens, UniProt P33261); test: Cytochrome P450 inhibition (Eurofins)
[12] = target: Ca Channel L-Type, Phenylalkylamine (Rattus norvegicus, UniProt P22002); test: Eurofins SafetyScreen panel; assay type: binding
Ca Channel L-Type, Phenylalkylamine, sequence (P22002 whole entry): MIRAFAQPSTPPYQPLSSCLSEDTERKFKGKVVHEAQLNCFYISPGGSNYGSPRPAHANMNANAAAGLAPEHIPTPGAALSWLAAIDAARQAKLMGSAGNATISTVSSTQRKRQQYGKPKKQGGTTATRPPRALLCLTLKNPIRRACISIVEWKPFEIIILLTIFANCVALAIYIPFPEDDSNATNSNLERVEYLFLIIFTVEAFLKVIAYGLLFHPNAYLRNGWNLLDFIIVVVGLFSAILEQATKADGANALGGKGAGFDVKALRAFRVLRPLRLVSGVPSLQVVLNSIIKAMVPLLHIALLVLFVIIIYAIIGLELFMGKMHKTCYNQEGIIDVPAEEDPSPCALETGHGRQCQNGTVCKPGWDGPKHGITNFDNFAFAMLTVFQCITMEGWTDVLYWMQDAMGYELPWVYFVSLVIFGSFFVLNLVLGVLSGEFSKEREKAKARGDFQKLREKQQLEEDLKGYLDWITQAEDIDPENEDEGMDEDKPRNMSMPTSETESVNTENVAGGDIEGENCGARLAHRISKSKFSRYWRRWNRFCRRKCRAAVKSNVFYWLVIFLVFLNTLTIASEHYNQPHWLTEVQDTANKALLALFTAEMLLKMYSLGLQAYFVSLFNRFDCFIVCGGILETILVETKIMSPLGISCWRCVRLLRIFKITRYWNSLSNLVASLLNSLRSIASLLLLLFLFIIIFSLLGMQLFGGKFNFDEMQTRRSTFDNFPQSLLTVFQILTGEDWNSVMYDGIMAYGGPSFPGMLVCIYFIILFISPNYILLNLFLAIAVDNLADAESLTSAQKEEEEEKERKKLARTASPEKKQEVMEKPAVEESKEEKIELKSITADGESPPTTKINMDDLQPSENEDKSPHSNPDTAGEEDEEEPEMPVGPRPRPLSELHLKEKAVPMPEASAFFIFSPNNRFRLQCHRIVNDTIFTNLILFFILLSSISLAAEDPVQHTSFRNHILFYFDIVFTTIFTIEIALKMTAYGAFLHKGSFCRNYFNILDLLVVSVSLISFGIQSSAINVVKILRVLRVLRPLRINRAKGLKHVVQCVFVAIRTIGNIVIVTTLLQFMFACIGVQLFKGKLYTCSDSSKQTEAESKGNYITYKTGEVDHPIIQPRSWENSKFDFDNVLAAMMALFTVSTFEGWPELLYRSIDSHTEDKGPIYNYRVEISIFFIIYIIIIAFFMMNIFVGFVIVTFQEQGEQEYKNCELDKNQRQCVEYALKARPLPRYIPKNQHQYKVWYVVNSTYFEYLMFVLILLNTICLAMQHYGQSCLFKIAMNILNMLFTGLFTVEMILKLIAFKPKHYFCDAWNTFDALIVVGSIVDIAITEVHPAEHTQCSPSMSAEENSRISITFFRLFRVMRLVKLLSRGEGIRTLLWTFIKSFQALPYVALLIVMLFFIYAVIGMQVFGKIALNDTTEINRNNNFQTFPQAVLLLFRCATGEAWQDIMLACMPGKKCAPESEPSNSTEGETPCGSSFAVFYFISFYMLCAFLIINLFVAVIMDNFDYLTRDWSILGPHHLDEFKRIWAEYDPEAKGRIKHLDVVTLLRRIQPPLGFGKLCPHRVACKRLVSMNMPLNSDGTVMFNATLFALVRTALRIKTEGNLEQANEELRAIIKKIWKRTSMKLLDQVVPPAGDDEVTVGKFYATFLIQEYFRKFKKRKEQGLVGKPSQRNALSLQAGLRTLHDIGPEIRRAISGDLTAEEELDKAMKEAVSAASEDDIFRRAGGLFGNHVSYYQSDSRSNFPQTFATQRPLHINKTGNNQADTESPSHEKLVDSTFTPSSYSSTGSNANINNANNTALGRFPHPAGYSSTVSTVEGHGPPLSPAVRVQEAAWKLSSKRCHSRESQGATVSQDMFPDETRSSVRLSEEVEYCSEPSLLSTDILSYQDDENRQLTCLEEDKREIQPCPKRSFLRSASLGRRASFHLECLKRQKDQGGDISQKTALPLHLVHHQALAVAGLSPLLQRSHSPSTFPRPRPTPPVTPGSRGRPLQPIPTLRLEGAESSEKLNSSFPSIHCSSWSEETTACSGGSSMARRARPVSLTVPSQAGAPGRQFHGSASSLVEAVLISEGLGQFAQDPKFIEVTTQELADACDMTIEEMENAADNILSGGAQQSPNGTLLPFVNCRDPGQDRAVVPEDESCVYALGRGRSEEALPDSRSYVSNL

[13] = target: T8, Serotonin 5-HT1A (Homo sapiens, UniProt P08908); test: Eurofins SafetyScreen panel; assay type: binding
T8 construct: Eurofins (contract assay)
T8 sequence (P08908 1-422): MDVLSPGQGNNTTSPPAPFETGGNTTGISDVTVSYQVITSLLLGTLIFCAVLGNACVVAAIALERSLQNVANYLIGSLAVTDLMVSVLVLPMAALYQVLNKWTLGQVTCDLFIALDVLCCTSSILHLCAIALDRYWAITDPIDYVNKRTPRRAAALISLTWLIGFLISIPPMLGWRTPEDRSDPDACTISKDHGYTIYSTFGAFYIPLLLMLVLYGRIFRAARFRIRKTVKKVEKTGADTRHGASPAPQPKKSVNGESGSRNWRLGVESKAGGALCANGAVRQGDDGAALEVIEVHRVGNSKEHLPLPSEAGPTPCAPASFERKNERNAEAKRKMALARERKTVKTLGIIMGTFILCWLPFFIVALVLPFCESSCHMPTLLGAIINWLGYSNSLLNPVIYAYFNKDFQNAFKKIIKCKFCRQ

[14] = target: T9, Angiotensin AT1 (Homo sapiens, UniProt P30556); test: Eurofins SafetyScreen panel; assay type: binding
T9 construct: Eurofins (contract screening, SafetyScreen panel) PP223
T9 sequence (P30556 whole entry): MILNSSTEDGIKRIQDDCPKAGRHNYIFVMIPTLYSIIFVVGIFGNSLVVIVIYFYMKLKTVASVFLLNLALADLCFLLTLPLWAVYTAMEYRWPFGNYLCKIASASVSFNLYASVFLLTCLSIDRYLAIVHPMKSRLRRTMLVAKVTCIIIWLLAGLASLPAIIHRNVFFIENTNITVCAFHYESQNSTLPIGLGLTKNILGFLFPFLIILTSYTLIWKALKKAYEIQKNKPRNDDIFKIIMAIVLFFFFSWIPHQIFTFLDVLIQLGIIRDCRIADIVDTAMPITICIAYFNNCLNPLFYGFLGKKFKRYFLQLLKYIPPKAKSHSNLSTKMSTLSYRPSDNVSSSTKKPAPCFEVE

[15] = target: T10, Melanocortin MC4 (Homo sapiens, UniProt P32245); test: Eurofins SafetyScreen panel; assay type: binding
T10 construct: purchased Eurofins (Panlabs) SafetyScreen87 Panel

[16] = target: T11, Vasopressin V1A (Homo sapiens, UniProt P37288); test: Eurofins SafetyScreen panel; assay type: binding
T11 construct: Eurofins (contract screening, SafetyScreen panel) PP223

[17] = target: h5-HT1A (Homo sapiens, UniProt P08908); conditions: 5-HT1AR
Procedure: For membrane preparation, cells after reaching 90% confluence, were washed with phosphate-buffered saline (PBS), and pelleted by centrifugation (200 × g) in PBS containing 0.1 mM EDTA and 1 mM dithiothreitol.
The total reaction volume was 200 μL. The incubation process was terminated by filtration through UniFilter-96 (PerkinElmer) plates with the FilterMate Universal Harvester (PerkinElmer, #C961962), and radioactivity retained on the filters was quantified on a MicroBeta counter for radiometric detection (PerkinElmer). […] To evaluate the level of nonspecific signal 10 μM of 5-HT for 5-HT1AR and 5-HT7R, 20 μM of mianserin for 5-HT2AR, 10 μM of methiothepine for 5-HT6R and 10 μM of haloperidol for D2LR were used. […] The acquired results were presented as the mean of at least two independent experiments.

[18] = target: T12, Adrenergic β2 (Homo sapiens, UniProt P07550); test: Eurofins SafetyScreen panel; assay type: binding
T12 construct: Eurofins (contract screening, SafetyScreen panel) PP223
T12 sequence (P07550 whole entry): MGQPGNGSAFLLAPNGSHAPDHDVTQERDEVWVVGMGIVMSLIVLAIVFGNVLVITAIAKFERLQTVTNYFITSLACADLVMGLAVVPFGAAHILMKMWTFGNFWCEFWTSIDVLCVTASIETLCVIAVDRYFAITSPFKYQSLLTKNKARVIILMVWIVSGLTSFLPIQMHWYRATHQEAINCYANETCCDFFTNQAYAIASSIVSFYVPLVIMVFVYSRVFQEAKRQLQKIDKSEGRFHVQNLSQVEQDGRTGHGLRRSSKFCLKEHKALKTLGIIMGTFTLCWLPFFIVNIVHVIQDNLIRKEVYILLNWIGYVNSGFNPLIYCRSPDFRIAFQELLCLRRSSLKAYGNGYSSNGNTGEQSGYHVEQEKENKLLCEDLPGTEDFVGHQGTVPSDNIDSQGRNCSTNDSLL

[19] = read-out: %inh, 10 μM, additional batch

O=S(=O)(c1cccc(F)c1)n1ccc2c(N3CCNCC3)nc3ccccc3c21 [FPPQ, 1-[(3-Fluorophenyl)sulfonyl]-4-(piperazin-1-yl)-1H-pyrrolo[3,2-c]quinoline dihydrochloride]
IC50 [1]: 7.89 µM | Ki [1]: 1.94 µM | inhibition at 0.1 µM ([1]; read-out: %inh): 3% | inhibition at 1 µM ([1]; read-out: %inh): 13% | inhibition at 100 µM ([1]; read-out: %inh): 98% | inhibition at 10 µM [2]: -1% | cytochrome P450 inhibition 2D6 [3]: < 25% inh at 10 uM | IC50 [4]: 10.1 µM | Ki [4]: 4.61 µM | inhibition at 0.1 µM ([4]; read-out: %inh, 0.1 μM): 1% | inhibition at 1 µM ([4]; read-out: %inh, 1 μM): -4% | inhibition at 10 µM ([4]; read-out: %inh, 10 μM): 43% | inhibition at 10 µM [4, 19]: 53% | inhibition at 100 µM ([4]; read-out: %inh, 100 μM): 108% | inhibition at 10 µM [5]: 8% | IC50 [6]: 57 µM | inhibition at 10 µM [7]: 13% | IC50 [8]: 1.15 µM | inhibition at 10 µM [9]: 45% | inhibition at 10 µM [10]: 21% | IC50 [11]: 10 µM | inhibition at 0.01 µM ([12]; 10 nM): -2% | inhibition at 0.1 µM ([12]; 0.1 μM): 9% | inhibition at 1 µM ([12]; 1 μM): 48% | inhibition at 10 µM [12]: 78% | inhibition at 10 µM ([12]; additional batch): 85% | IC50 [13]: 0.86 µM | Ki [13]: 0.49 µM | inhibition at 0.01 µM ([13]; read-out: %inh, 10 nM): -2% | inhibition at 0.1 µM ([13]; read-out: %inh, 0.1 μM): 16% | inhibition at 1 µM ([13]; read-out: %inh, 1 μM): 53% | inhibition at 10 µM ([13]; read-out: %inh, 10 μM): 87% | inhibition at 10 µM [13, 19]: 91% | inhibition at 10 µM [14]: -4% | inhibition at 10 µM [15]: 27% | inhibition at 10 µM [16]: -18% | Ki [17]: 0.437 µM | IC50 [18]: 0.12 µM | Ki [18]: 0.085 µM | inhibition at 0.01 µM ([18]; 10 nM): 9% | inhibition at 0.1 µM ([18]; 0.1 μM): 43% | inhibition at 1 µM ([18]; 1 μM): 93% | inhibition at 10 µM [18]: 103% | inhibition at 10 µM ([18]; additional batch): 99%
